From PubChem BioAssay (NCI) come the findings set out here.

Test systems include HCT-116 colon; HOP-62 NSCLC; HS 578T breast; LOX IMVI melanoma; NCI/ADR-RES ovarian; SF-539 CNS; SK-OV-3 ovarian; SNB-75 CNS; SR leukemia; UO-31 renal.
Common to all, as to assay: NCI tumour cell line growth inhibition, 48 h

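Following 48 hours of exposure in 96-well plates, responses at five concentrations were used to interpolate endpoints linearly. GI50 marks 50% less growth. The concentration for full growth arrest is given as TGI.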 A value given as a limit tells only on which side of the number the result lay.

As for `O=C(Nc1cc(C(F)(F)F)ccc1F)Nc1n[nH]c2ccccc12`, the GI50 was above 100000 nM in the test on HCT-116 colon; above 100 µM with HOP-62 NSCLC; above 100000 nM with HS 578T breast; above 100000 nM in the test with LOX IMVI melanoma; above 100 µM in the test on NCI/ADR-RES ovarian; above 100 µM with SF-539 CNS. Further, the GI50 in the test on SK-OV-3 ovarian was above 100 µM; in the test with SNB-75 CNS it was 40100 nM; with SR leukemia it was 55400 nM; in the test with UO-31 renal it was above 100000 nM. The TGI in the test on HCT-116 colon, in the test with HOP-62 NSCLC, with HS 578T breast, with LOX IMVI melanoma, in the test with NCI/ADR-RES ovarian and in the test on SF-539 CNS was above 100 µM throughout. For the same molecule, the TGI in the test with SK-OV-3 ovarian, with SNB-75 CNS, in the test on SR leukemia and in the test on UO-31 renal was above 100 µM each time.
`Cn1c(=O)cc2c3c(c(NCCCO)ccc31)C(=O)c1ccccc1-2`: the GI50 was 491 nM in the test on HCT-116 colon; 19.2 µM with HOP-62 NSCLC; 3680 nM in the test on HS 578T breast; 1440 nM in the test on LOX IMVI melanoma; 5.2 µM with NCI/ADR-RES ovarian; 8.8 µM in the test on SF-539 CNS. The GI50 was 9.81 µM in the test with SK-OV-3 ovarian, 4360 nM in the test on SNB-75 CNS, 694 nM with SR leukemia and 1090 nM in the test with UO-31 renal. Further, the TGI with HCT-116 colon is above 100 µM; in the test with HOP-62 NSCLC it was above 100 µM; with HS 578T breast it was above 100 µM; with LOX IMVI melanoma it was 20.7 µM; in the test on NCI/ADR-RES ovarian it was above 100 µM; with SF-539 CNS, above 100 µM. For the same molecule, the TGI was above 100 µM in the test on SK-OV-3 ovarian, above 100 µM in the test with SNB-75 CNS, 13.4 µM in the test on SR leukemia and above 100 µM in the test with UO-31 renal.
With `CC(C)=CCc1c(O)cc(/C=C/c2cc(O)c3c(c2)C[C@@H]2C(C)(C)[C@H](O)[C@H](O)C[C@@]2(C)O3)cc1O`, the GI50 in the test with HCT-116 colon was 5.19 nM; with HOP-62 NSCLC, 1.38 µM; in the test with HS 578T breast it was below 1 nM; in the test with LOX IMVI melanoma, 2.1 nM; in the test on NCI/ADR-RES ovarian it was 1.38 µM; in the test with SF-539 CNS it was 0.00532 µM. The GI50 in the test on SK-OV-3 ovarian is 0.264 µM; in the test with SNB-75 CNS, below 1 nM; in the test on SR leukemia, below 1 nM; in the test on UO-31 renal it was below 1 nM. Moreover, the TGI with HCT-116 colon was above 10 µM; in the test on HOP-62 NSCLC it was above 7.95 µM; in the test on HS 578T breast, above 2.21 µM; with LOX IMVI melanoma it was 3.02 µM; in the test on NCI/ADR-RES ovarian, 7.43 µM; with SF-539 CNS, 2.2 µM. Besides, the TGI with SK-OV-3 ovarian was 3.73 µM; in the test on SNB-75 CNS it was 0.958 µM; in the test with SR leukemia, above 10 µM; with UO-31 renal it was 4.92 µM.
Regarding `CCOC(=O)CC1(O)C=CC(=O)C=C1`, the GI50 with HCT-116 colon is 2.47 µg/mL; with HOP-62 NSCLC, 2.82 µg/mL; in the test with HS 578T breast, 2.13 µg/mL; with LOX IMVI melanoma it was 0.498 µg/mL; in the test with NCI/ADR-RES ovarian it was 1.28 µg/mL; in the test on SF-539 CNS, 0.581 µg/mL. The GI50 is 1.71 µg/mL with SK-OV-3 ovarian, 1.95 µg/mL with SNB-75 CNS, 0.348 µg/mL in the test on SR leukemia and 2.41 µg/mL in the test on UO-31 renal. The TGI is 5.44 µg/mL with HCT-116 colon; 5.29 µg/mL in the test on HOP-62 NSCLC; 15.3 µg/mL in the test with HS 578T breast; 1.68 µg/mL with LOX IMVI melanoma; 6.57 µg/mL in the test with NCI/ADR-RES ovarian; 2.68 µg/mL with SF-539 CNS. Besides, the TGI in the test with SK-OV-3 ovarian stood at 5.53 µg/mL; in the test on SNB-75 CNS, 4.38 µg/mL; with SR leukemia, 1.18 µg/mL; with UO-31 renal, 4.44 µg/mL.
In the case of `Cn1c(COC(=O)N2CCCCC2)nc2c(N3CCOCC3)nc(-c3ccccc3)nc21`, the GI50 is 173 nM with HCT-116 colon; 1.42 µM in the test on HOP-62 NSCLC; 698 nM with HS 578T breast; 166 nM in the test on LOX IMVI melanoma; 1.67 µM with NCI/ADR-RES ovarian; 1.33 µM with SF-539 CNS. Besides, the GI50 in the test on SK-OV-3 ovarian is 2.64 µM; with SNB-75 CNS it was 817 nM; in the test with SR leukemia, 287 nM; in the test on UO-31 renal, 260 nM. Besides, the TGI stood at 0.471 µM in the test on HCT-116 colon; 3.21 µM in the test on HOP-62 NSCLC; 2.91 µM in the test with HS 578T breast; 0.337 µM in the test on LOX IMVI melanoma; 5.72 µM with NCI/ADR-RES ovarian; 2.61 µM with SF-539 CNS. The TGI in the test with SK-OV-3 ovarian stood at 10.5 µM; in the test on SNB-75 CNS, 2.18 µM; in the test with SR leukemia, 2.34 µM; in the test with UO-31 renal, 1.45 µM.
For `O=C1C=C(Nc2ccccc2C(=O)CC(=O)C(=O)Nc2cccc(C(F)(F)F)c2)c2ccccc2C1=O`, the TGI is 74.3 µM in the test with HCT-116 colon; above 72.7 µM with HOP-62 NSCLC; 66.2 µM with HS 578T breast; 27.3 µM with LOX IMVI melanoma; 49.5 µM in the test with NCI/ADR-RES ovarian; 49 µM in the test on SF-539 CNS. The TGI in the test with SK-OV-3 ovarian was above 100 µM; in the test on SNB-75 CNS, above 96.9 µM; in the test on SR leukemia it was above 94.7 µM; with UO-31 renal, above 80.1 µM.
`ClCCN(CCCl)c1ccc(-n2cnc3c(Cl)ncnc32)cc1`: the GI50 in the test with HCT-116 colon was 1820 nM; in the test on HOP-62 NSCLC, 6.94 µM; with HS 578T breast, 2950 nM; in the test on LOX IMVI melanoma, 2000 nM; in the test with NCI/ADR-RES ovarian, 4.15 µM; in the test with SF-539 CNS it was 5.23 µM. The GI50 is 11 µM with SK-OV-3 ovarian, 2060 nM in the test on SNB-75 CNS, 2060 nM in the test on SR leukemia and 1700 nM with UO-31 renal. Moreover, the TGI came out at 3.33 µM in the test with HCT-116 colon; 20.2 µM in the test on HOP-62 NSCLC; 9.79 µM in the test on HS 578T breast; 4.09 µM in the test on LOX IMVI melanoma; 20.3 µM in the test with NCI/ADR-RES ovarian; 19 µM in the test with SF-539 CNS. Besides, the TGI was determined as 22.9 µM in the test with SK-OV-3 ovarian, 7.37 µM in the test on SNB-75 CNS, 6.55 µM in the test with SR leukemia and 3.34 µM in the test on UO-31 renal.
